Reference: patent US10294202B2, “Pyrrolidinones as herbicides” (FMC Corporation, priority 2013, dated 2019)
Where two headings read alike, the source gives them in different places.

Columns and labels:
morningglory = assay: Test A pre-/postemergence herbicide test; format: in vivo, Ipomoea spp.; conditions: for Morningglory plant response rating: Preemergence, visual rating on 0 to 100 scale (0 no effect, 100 complete control)
Procedure, shortened: (§1)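 Visual injury ratings, 0 = no effect, 100 = complete control, taken ~10 days after treatment against untreated greenhouse controls. Preemergence: directed soil spray onto seeded loam/sand pots. Postemergence: spray onto plants at one- to two-leaf stage, 2–10 cm tall.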

crabgrass, large = assay: Test A pre-/postemergence herbicide test; format: in vivo, Digitaria sanguinalis; conditions: for Crabgrass, Large plant response rating: Preemergence, visual rating on 0 to 100 scale (0 no effect, 100 complete control)
Procedure, shortened: as §1

corn = assay: Test A pre-/postemergence herbicide test; format: in vivo, Zea mays; conditions: for Corn plant response rating: Preemergence, visual rating on 0 to 100 scale (0 no effect, 100 complete control)
Procedure, shortened: as §1

giant foxtail = assay: Test A pre-/postemergence herbicide test; format: in vivo, Setaria faberii; conditions: for Foxtail, Giant plant response rating: Preemergence, visual rating on 0 to 100 scale (0 no effect, 100 complete control)
Procedure, shortened: as §1

barnyardgrass [1] = assay: Test B flooded paddy test; format: in vivo, Echinochloa crus-galli; conditions: 250 g ai/ha, Flood; scale of 0 to 100 where 0 is no effect and 100 is complete control
Procedure, shortened: (§2)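 Plants grown to 2-leaf stage; pots flooded 3 cm above soil and compound applied directly into paddy water, depth held throughout. Visual rating against untreated controls after 13 to 15 days in greenhouse, 0 (no effect) to 100 (complete control).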

rice = assay: Test B flooded paddy test; format: in vivo, Oryza sativa; conditions: 250 g ai/ha, Flood; scale of 0 to 100 where 0 is no effect and 100 is complete control
Procedure, shortened: as §2

wheat = assay: Test A pre-/postemergence herbicide test; format: in vivo, Triticum aestivum; conditions: for Wheat plant response rating: Preemergence, visual rating on 0 to 100 scale (0 no effect, 100 complete control)
Procedure, shortened: as §1

pigweed = assay: Test A pre-/postemergence herbicide test; format: in vivo, Amaranthus retroflexus; conditions: for Pigweed plant response rating: Preemergence, visual rating on 0 to 100 scale (0 no effect, 100 complete control)
Procedure, shortened: as §1

ducksalad = assay: Test B flooded paddy test; format: in vivo, Heteranthera limosa; conditions: 250 g ai/ha, Flood; scale of 0 to 100 where 0 is no effect and 100 is complete control
Procedure, shortened: as §2

velvetleaf = assay: Test A pre-/postemergence herbicide test; format: in vivo, Abutilon theophrasti; conditions: for Velvetleaf plant response rating: Preemergence, visual rating on 0 to 100 scale (0 no effect, 100 complete control)
Procedure, shortened: as §1

barnyardgrass [2] = assay: Test A pre-/postemergence herbicide test; format: in vivo, Echinochloa crus-galli; conditions: for Barnyardgrass plant response rating: Preemergence, visual rating on 0 to 100 scale (0 no effect, 100 complete control)
Procedure, shortened: as §1

sedge, umbrella = assay: Test B flooded paddy test; format: in vivo, Cyperus difformis; conditions: 250 g ai/ha, Flood; scale of 0 to 100 where 0 is no effect and 100 is complete control
Procedure, shortened: as §2

[3] = Postemergence, 125 g ai/ha, 0 to 100 scale, 0 no effect, 100 complete control
[4] = Postemergence, 500 g ai/ha, 0 to 100 scale (0 no effect, 100 complete control)
[5] = preemergence, 500 g ai/ha, 0 to 100 scale

CC(C)(C)OC(=O)Nc1cccc(C2CNC(=O)C2C(=O)Nc2cccc(F)c2F)c1 (stereo not drawn) [Compound 70]
Plant response rating, Morningglory (morningglory; [3]): 0
Plant response rating, Morningglory (morningglory; [4]): 0
Morningglory plant response rating (morningglory; 125 g ai/ha): 0
Plant response rating, Morningglory (morningglory; [5]): 0
Plant response rating, Crabgrass, Large (crabgrass, large; [3]): 20
Plant response rating, Crabgrass, Large (crabgrass, large; [4]): 70
Crabgrass, Large plant response rating (crabgrass, large; 125 g ai/ha): 80
Plant response rating, Crabgrass, Large (crabgrass, large; [5]): 90
Plant response rating, Corn (corn; [3]): 0
Plant response rating, Corn (corn; [4]): 0
Corn plant response rating (corn; 125 g ai/ha): 0
Plant response rating, Corn (corn; [5]): 0
Plant response rating, Foxtail, Giant (giant foxtail; [3]): 20
Plant response rating, Foxtail, Giant (giant foxtail; [4]): 80
Foxtail, Giant plant response rating (giant foxtail; 125 g ai/ha): 70
Plant response rating, Foxtail, Giant (giant foxtail; [5]): 90
Plant response rating, Barnyardgrass (barnyardgrass [1]): 40
Plant response rating, Rice (rice): 35
Plant response rating, Wheat (wheat; [3]): 0
Plant response rating, Wheat (wheat; [4]): 40
Wheat plant response rating (wheat; 125 g ai/ha): 0
Plant response rating, Wheat (wheat; [5]): 20
Plant response rating, Pigweed (pigweed; [3]): 0
Plant response rating, Pigweed (pigweed; [4]): 20
Pigweed plant response rating (pigweed; 125 g ai/ha): 0
Plant response rating, Pigweed (pigweed; [5]): 0
Plant response rating, Ducksalad (ducksalad): 85
Plant response rating, Velvetleaf (velvetleaf; [3]): 0
Plant response rating, Velvetleaf (velvetleaf; [4]): 20
Velvetleaf plant response rating (velvetleaf; 125 g ai/ha): 0
Plant response rating, Velvetleaf (velvetleaf; [5]): 0
Plant response rating, Barnyardgrass (barnyardgrass [2]; [3]): 20
Plant response rating, Barnyardgrass (barnyardgrass [2]; [4]): 60
Barnyardgrass plant response rating (barnyardgrass [2]; 125 g ai/ha): 20
Plant response rating, Barnyardgrass (barnyardgrass [2]; preemergence, 500 g ai/ha, 0 to 100 scale (0 no effect, 100 complete control)): 90
Plant response rating, Sedge, Umbrella (sedge, umbrella): 70

O=C1NCC(c2ccc(F)c(Cl)c2)C1C(=O)Nc1ccccc1C(F)(F)F (stereo not drawn) [Compound 74, 4-(3-chloro-4-fluorophenyl)-2-oxo-N-[2-(trifluoromethyl)phenyl]-3-pyrrolidinecarboxamide]
pest or weed control at 125 g/ha (morningglory; Ipomoea, post-emergence, 240 h, Postemergence, 125 g ai/ha, 0 to 100 scale, 0 no effect, 100 complete control, read-out: Plant response rating, Morningglory): 0%
pest or weed control at 500 g/ha (morningglory; Ipomoea, post-emergence, 240 h, Postemergence, 500 g ai/ha, 0 to 100 scale (0 no effect, 100 complete control), read-out: Plant response rating, Morningglory): 0%
pest or weed control at 500 g/ha (morningglory; Ipomoea, pre-emergence, 240 h, preemergence, 500 g ai/ha, 0 to 100 scale, read-out: Plant response rating, Morningglory): 0%
Morningglory plant response rating (morningglory; 125 g ai/ha): 0
pest or weed control at 125 g/ha (crabgrass, large; Digitaria sanguinalis, post-emergence, 240 h, Postemergence, 125 g ai/ha, 0 to 100 scale, 0 no effect, 100 complete control, read-out: Plant response rating, Crabgrass, Large): 80%
pest or weed control at 500 g/ha (crabgrass, large; Digitaria sanguinalis, post-emergence, 240 h, Postemergence, 500 g ai/ha, 0 to 100 scale (0 no effect, 100 complete control), read-out: Plant response rating, Crabgrass, Large): 90%
pest or weed control at 500 g/ha (crabgrass, large; Digitaria sanguinalis, pre-emergence, 240 h, preemergence, 500 g ai/ha, 0 to 100 scale, read-out: Plant response rating, Crabgrass, Large): 90%
Crabgrass, Large plant response rating (crabgrass, large; 125 g ai/ha): 90
Corn plant response rating (corn; 125 g ai/ha): 0
Corn plant response rating (crop injury, 0 = no effect, 100 = complete kill) at 125 g/ha (corn; Zea mays, post-emergence, 240 h, Postemergence, 125 g ai/ha, 0 to 100 scale, 0 no effect, 100 complete control): 0%
Corn plant response rating (crop injury, 0 = no effect, 100 = complete kill) at 500 g/ha (corn; Zea mays, post-emergence, 240 h, Postemergence, 500 g ai/ha, 0 to 100 scale (0 no effect, 100 complete control)): 50%
Corn plant response rating (crop injury, 0 = no effect, 100 = complete kill) at 500 g/ha (corn; Zea mays, pre-emergence, 240 h, preemergence, 500 g ai/ha, 0 to 100 scale): 0%
Foxtail, Giant plant response rating (giant foxtail; 125 g ai/ha): 90
pest or weed control at 125 g/ha (giant foxtail; Setaria faberi, post-emergence, 240 h, Postemergence, 125 g ai/ha, 0 to 100 scale, 0 no effect, 100 complete control, read-out: Plant response rating, Foxtail, Giant): 80%
pest or weed control at 500 g/ha (giant foxtail; Setaria faberi, post-emergence, 240 h, Postemergence, 500 g ai/ha, 0 to 100 scale (0 no effect, 100 complete control), read-out: Plant response rating, Foxtail, Giant): 90%
pest or weed control at 500 g/ha (giant foxtail; Setaria faberi, pre-emergence, 240 h, preemergence, 500 g ai/ha, 0 to 100 scale, read-out: Plant response rating, Foxtail, Giant): 90%
Plant response rating, Barnyardgrass (barnyardgrass [1]): 0
Plant response rating, Rice (rice): 0
Wheat plant response rating (wheat; 125 g ai/ha): 0
plant injury at 125 g/ha (wheat; Triticum aestivum, post-emergence, 240 h, Postemergence, 125 g ai/ha, 0 to 100 scale, 0 no effect, 100 complete control, read-out: Plant response rating, Wheat): 0%
plant injury at 500 g/ha (wheat; Triticum aestivum, post-emergence, 240 h, Postemergence, 500 g ai/ha, 0 to 100 scale (0 no effect, 100 complete control), read-out: Plant response rating, Wheat): 60%
plant injury at 500 g/ha (wheat; Triticum aestivum, pre-emergence, 240 h, preemergence, 500 g ai/ha, 0 to 100 scale, read-out: Plant response rating, Wheat): 0%
pest or weed control at 125 g/ha (pigweed; Amaranthus retroflexus, post-emergence, 240 h, Postemergence, 125 g ai/ha, 0 to 100 scale, 0 no effect, 100 complete control, read-out: Plant response rating, Pigweed): 0%
pest or weed control at 500 g/ha (pigweed; Amaranthus retroflexus, post-emergence, 240 h, Postemergence, 500 g ai/ha, 0 to 100 scale (0 no effect, 100 complete control), read-out: Plant response rating, Pigweed): 0%
pest or weed control at 500 g/ha (pigweed; Amaranthus retroflexus, pre-emergence, 240 h, preemergence, 500 g ai/ha, 0 to 100 scale, read-out: Plant response rating, Pigweed): 50%
Pigweed plant response rating (pigweed; 125 g ai/ha): 0
Plant response rating, Ducksalad (ducksalad): 90
pest or weed control at 125 g/ha (velvetleaf; Abutilon theophrasti, post-emergence, 240 h, Postemergence, 125 g ai/ha, 0 to 100 scale, 0 no effect, 100 complete control, read-out: Plant response rating, Velvetleaf): 30%
pest or weed control at 500 g/ha (velvetleaf; Abutilon theophrasti, post-emergence, 240 h, Postemergence, 500 g ai/ha, 0 to 100 scale (0 no effect, 100 complete control), read-out: Plant response rating, Velvetleaf): 50%
pest or weed control at 500 g/ha (velvetleaf; Abutilon theophrasti, pre-emergence, 240 h, preemergence, 500 g ai/ha, 0 to 100 scale, read-out: Plant response rating, Velvetleaf): 0%
Velvetleaf plant response rating (velvetleaf; 125 g ai/ha): 0
pest or weed control at 125 g/ha (barnyardgrass [2]; Echinochloa crus-galli, post-emergence, 240 h, Postemergence, 125 g ai/ha, 0 to 100 scale, 0 no effect, 100 complete control, read-out: Plant response rating, Barnyardgrass): 60%
pest or weed control at 500 g/ha (barnyardgrass [2]; Echinochloa crus-galli, post-emergence, 240 h, Postemergence, 500 g ai/ha, 0 to 100 scale (0 no effect, 100 complete control), read-out: Plant response rating, Barnyardgrass): 80%
pest or weed control at 500 g/ha (barnyardgrass [2]; Echinochloa crus-galli, pre-emergence, 240 h, preemergence, 500 g ai/ha, 0 to 100 scale (0 no effect, 100 complete control), read-out: Plant response rating, Barnyardgrass): 90%
Barnyardgrass plant response rating (barnyardgrass [2]; 125 g ai/ha): 60
Plant response rating, Sedge, Umbrella (sedge, umbrella): 0
